Reference: PMC8459327, “Identification of molecular glues of the SLP76/14-3-3 protein–protein interaction” (RSC Medicinal Chemistry, 2021)
Entries after “also recorded” stand apart in the source; their conditions may differ. Read-outs that look alike come from different tables or passages of the source.

B1: SLP76-SH2: 20 KDa phosphorylated SLP76 protein construct (pSer376), binding partner of 14-3-3γ (protein)
chain: MPGAFSESNSSFPQSASLPPYFSQGPSNRPPIRAEGRNFPLPLPNKPRPPSPAEEENSLNEEWYVSYITRPEAEAALRKINQDGTFLVRDSSKKTTTNPYVLMVLYKDKVYNIQIRYQKESQVYLLGTGLRGKEDFLSVSDIIDYFRKMPLLLIDGKNRGSRYQCTLTHAAGYP
modifications: phospho-Ser376 (in vitro by HPK1); His6-SUMO tag cleaved; AF647 amine-labelled in HTRF; the segment is inferred to span Ser376 and the C-terminal SH2 domain to t

What was measured:
14-3-3γ/SLP76 [1] = target: T1, 14-3-3γ/SLP76 (Homo sapiens, UniProt P61981+Q13094); test: HTRF dose-response assay on 14-3-3γ/SLP76; assay type: binding; settings: stabilisation; 14-3-3γ-Tb 1 nM, SLP76-AF647 600 nM, 5% DMSO; EC50 estimated from fit; read-out: HTRF EC50 14-3-3γ/SLP76
T1 sequence (Q13094 356-533, one chain of several): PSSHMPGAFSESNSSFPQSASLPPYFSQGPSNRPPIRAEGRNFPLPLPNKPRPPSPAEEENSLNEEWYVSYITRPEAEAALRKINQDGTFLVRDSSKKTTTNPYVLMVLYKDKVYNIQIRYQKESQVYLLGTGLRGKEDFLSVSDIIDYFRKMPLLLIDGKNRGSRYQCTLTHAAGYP
Description: 384-Well logistic plates were prefilled with 2 μL of compounds at 2 mM, 100% DMSO, except for columns 1, 2, 23 and 24. Columns 1, 2 were filled with 2 μL of DMSO while columns 23, 24 were filled with 2 μL of the 14-3-3 inhibitor R18 at 20 μM using a Multidrop Dispenser (ThermoScientific). Next, 40 μL of protein mixture containing Tb-labelled 14-3-3γ at 1 nM and AF647 labelled SLP76 at 600 nM in assay buffer (50 mM Tris pH 7.5, 150 mM NaCl, 5 mM MgCl2, 0.05% v/v Tween-20) were added using a Multidrop Dispenser (ThermoScientific). […] To perform the assay, 30 μL volumes were then transferred using a Biomek FX^P Automated Workstation (Beckman Coulter) into Corning 384-well 3574 assay plates. The plates were incubated at room temperature with gentle shaking for 4 h. Finally, the data were collected on a PHERAstar FSX plate reader (BMG Labtech) with an λex 337 nm, λem 665 nm and 620 nm HTRF filter setting. The data were exported in IDBS ActivityBase (IDBS) where they were normalised setting the R18 negative control as 100% inhibition and the DMSO control as 0%. Negative percentage values were therefore associated with a stabilisation of the 14-3-3γ/SLP76 interaction. The threshold of −20% inhibition (or 20% stabilisation) was chosen to select the hits to follow up. The selected hits were retested on 14-3-3γ/SLP76 and were also tested against an unrelated protein pair (IL-17/receptor) in a similar assay setup. […] All the assays were performed as described above.
(§1) 384 logistic plates were prefilled with 40 μL of compounds at 10 mM, 100% DMSO in column 3. Columns 1, 2 and 4 to 22 were filled with 20 μL of 100% DMSO with a Multidrop Dispenser (ThermoScientific). 2-Fold dilutions of the compounds were carried over from column 3 to 22, with a CyBio FeliX liquid handler (analytikjena). 2 μL of R18 peptide at 20 μM was added to columns 23 and 24 of the Corning 384-well 3574 final assay plates with a Multidrop Dispenser (ThermoScientific). 40 μL of protein mixture, containing Tb labelled 14-3-3γ at 1 nM and AF647 labelled SLP76 at 600 nM in assay buffer (50 mM Tris pH 7.5, 150 mM NaCl, 5 mM MgCl2, 0.05% v/v Tween-20) were added with a Multidrop Dispenser (ThermoScientific) into the Corning 384-well 3574 final assay plates. 2 μL of compounds along with the DMSO control were then transferred with a CyBio FeliX liquid handler (analytikjena) from the 384 logistic plates to the final Corning 384-well 3574 assay plates. […] The dose–response on the first 64 compounds was performed in singlet from a 500 μM top concentration. The repetition on the best 16 compounds was performed in duplicates from a 250 μM top concentration. A dose–response assay on an unrelated 14-3-3ζ/p27 HTRF protein pair was performed as described above. Incubation, data acquisition and normalisation were performed as described above. For EC50 estimation, the data were fitted with a “log(agonist) vs. response (three parameters)” model on GraphPad Prism version 8.1.1 for Windows, GraphPad Software, La Jolla California USA, www.graphpad.com. In the case of duplicates, each data point is the average of a duplicate measurement, standard deviation is reported as error bars.

14-3-3ζ/p27 = 14-3-3ζ/p27 (Homo sapiens, UniProt P46527+P63104); test: HTRF dose-response assay on 14-3-3ζ/p27; assay type: binding; settings: for EC50: stabilisation, same FRET pair, EC50 estimated from fit, read-out: HTRF EC50 14-3-3ζ/p27
14-3-3ζ/p27, sequence (P63104 whole entry): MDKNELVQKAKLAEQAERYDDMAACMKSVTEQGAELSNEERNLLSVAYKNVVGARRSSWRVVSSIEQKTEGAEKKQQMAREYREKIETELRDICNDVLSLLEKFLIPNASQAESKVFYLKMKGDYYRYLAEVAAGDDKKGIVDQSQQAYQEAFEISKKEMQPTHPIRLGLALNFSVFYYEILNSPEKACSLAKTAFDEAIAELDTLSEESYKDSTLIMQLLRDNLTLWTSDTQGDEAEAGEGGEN
14-3-3ζ/p27, sequence (P46527 whole entry): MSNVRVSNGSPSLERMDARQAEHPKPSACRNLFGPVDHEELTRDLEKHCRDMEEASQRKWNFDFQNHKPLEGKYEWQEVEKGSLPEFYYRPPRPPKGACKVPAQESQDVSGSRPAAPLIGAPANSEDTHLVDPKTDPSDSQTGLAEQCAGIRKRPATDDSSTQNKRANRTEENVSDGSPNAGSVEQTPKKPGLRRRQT
Description: as §1

14-3-3γ/SLP76 [2] = target: T1, 14-3-3γ/SLP76; test: HTRF dose-ratio assay (SLP76 titration at fixed compound concentrations); assay type: binding
Description: Each protein titration was performed in the presence of a fixed concentration of compound. […] Proteins and R18 peptide were diluted from their stock concentration in assay buffer (50 mM Tris pH 7.5, 150 mM NaCl, 5 mM MgCl2, 0.05% v/v Tween-20). Incubation and data acquisition were performed as described above. […] For data analysis the background FRET signal generated by the titration in the presence of R18 10 μM was removed from all values. KD values for each curve were estimated and comparison with the different concentration of compounds were made. The data were fitted with a “One site – specific” model on GraphPad Prism version 8.1.1 for Windows, GraphPad Software, La Jolla California USA, www.graphpad.com. Each data point is the average of a duplicate measurement, standard deviation is reported as error bars.

14-3-3γ/SLP76 [3] = target: T1, 14-3-3γ/SLP76; test: Orthogonal SPR assay, compound flowed with SLP76 over immobilised 14-3-3γ; assay type: binding; set-up: key to SPR RU (%) mass increase 14-3-3γ/SLP76: Ns: no stabilisation observed in SPR; settings: for Stabilisation in SPR (in words): off-rate / mass on chip versus runs without compound; for SPR RU (%) mass increase 14-3-3γ/SLP76: percentage of SLP76 remained on the chip after the dissociation phase (+240 s)
Description: Of the 16 hit compounds 13 were tested in an orthogonal SPR assay in which each compound was flowed with SLP76 over 14-3-3γ immobilised on the chip. Runs at different concentrations of compound were compared to the runs in absence of compound. […] The effect of the compounds on 14-3-3γ/SLP76 was measured by calculating the percentage of SLP76 remained on the chip after the dissociation phase and immediately before: RU (%) = RU 5 s before dissociation/RU +240 s after dissociation. Dose–response curves were extrapolated from those sensorgrams plotting the RU (%) mass increase over the increase in compound concentrations.
SPR experiments were performed on a Biacore T200 (Cytiva). The Sensor Chip NTA was validated as previously reported by Soini et al.[63] A DMSO tolerance at 2% and 5% was performed in the same way (Fig. S1 ^†).
For compounds testing, the compounds were preincubated with SLP76, in final DMSO concentration of 5%. The compounds were tested at a single concentration of 100 μM and at multiple concentrations following a 3-fold dilution from a top concentration of 100 μM with SLP76 at the saturation concentration of 250 nM. A second set of experiments were performed at multiple concentrations of compound following a 3-fold dilution from a top concentration of 200 μM with SLP76 around the KD concentration of 40 nM. The SLP76/compound mixtures were flowed over the immobilised 14-3-3γ at 30 μL min^−1 for 180 s before allowing dissociation for 5 minutes. After every cycle, the chip was washed with EDTA and Ni^2+ and 14-3-3γ reinjected for the next cycle. The compound effects were measured by calculating the percentage of SLP76 remained on the chip after the dissociation phase and right before: RU (%) = RU 5 s before dissociation/RU +240 s after dissociation. RU response points relative to +240 s after dissociation were also plotted and an apparent EC50 was estimated. The data were fitted with a “One site – specific” model on GraphPad Prism version 8.1.1 for Windows, GraphPad Software, La Jolla California USA, www.graphpad.com.

14-3-3γ [4] = target: T2, 14-3-3γ (Homo sapiens, UniProt P61981); test: SPR binding assay of the SLP76-SH2 construct to 14-3-3γ; settings: in the presence of 5% DMSO, extrapolated from binding curve
T2 sequence (P61981 1-247): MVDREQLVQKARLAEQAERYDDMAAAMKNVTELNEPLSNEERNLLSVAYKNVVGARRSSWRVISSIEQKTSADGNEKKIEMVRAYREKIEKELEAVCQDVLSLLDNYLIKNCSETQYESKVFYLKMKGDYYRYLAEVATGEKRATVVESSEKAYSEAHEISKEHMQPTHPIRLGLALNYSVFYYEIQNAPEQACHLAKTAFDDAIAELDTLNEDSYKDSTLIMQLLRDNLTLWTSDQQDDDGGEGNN
From the text: Fig. 1 Assay set-up for the 14-3-3γ/SLP76 PPI. a) SPR binding assay of the SLP76-SH2 construct binding to 14-3-3γ in the presence of 5% DMSO. The KD value has been extrapolated from the binding curve reported on the right of the sensorgrams. b) HTRF assay set-up. The two proteins of interest, SLP76 and 14-3-3γ have been labelled with […], to generate a suitable matched pair of donor molecule (Tb) and acceptor molecule (AF647). The donor molecule, Tb labelled 14-3-3, is excited at the proper wavelength of 337 nm. When the acceptor is not in the proximity (no binding) no signal is detected. When SLP76 bound to 14-3-3 brings the acceptor molecule AF647 close to the donor, energy transfer occurs between the fluorophores pair. A radiation with the wavelength of 665 nm is consequently emitted to generate a read-out (665/620 nm). All HTRF protein systems used in this work are reported in the legend.
SPR experiments were performed on a Biacore T200 (Cytiva). The Sensor Chip NTA was validated as previously reported by Soini et al.[63] A DMSO tolerance at 2% and 5% was performed in the same way (Fig. S1 ^†). […]
confirming a DMSO tolerance of the 14-3-3γ/SLP76-SH2 system in an SPR context. A KD value calculated by […]

14-3-3γ [5] = target: T2, 14-3-3γ; set-up: method as in Soini et al.; settings: SPR, in absence of DMSO; ref Soini et al.; read-out: KD of SLP76-SH2 binding to 14-3-3γ; cited from earlier work

Molecule | EC50 (14-3-3γ/SLP76 [1]) | Selectivity between 14-3-3γ/SLP76 and 14-3-3ζ/p27 (in words) (14-3-3ζ/p27; comparison of HTRF dose-responses) | EC50 (14-3-3ζ/p27) | KD improvement in the SLP76 HTRF assay (14-3-3γ/SLP76 [2]) | Stabilisation in SPR (in words) (14-3-3γ/SLP76 [3]) | SPR RU (%) mass increase 14-3-3γ/SLP76 (14-3-3γ/SLP76 [3]) | Stabilisation of 14-3-3ζ/p27 in HTRF (in words) (14-3-3ζ/p27) | Kd (14-3-3γ [4]) | Kd (14-3-3γ [5])
COc1ccc(C(=O)N2C[C@@H]3CN(CCO3)C(=O)[C@@H]3C[C@@H](CN3Cc3cccnc3)NC(=O)C[C@@H]3O[C@H](C2)[C@@H](O)[C@H]3O)cc1 [Compound 3, (3S,6S,10S,11R,12S,13R,17R)-11,12-dihydroxy-15-(4-methoxybenzoyl)-4-(pyridin-3-ylmethyl)-18,22-dioxa-1,4,7,15-tetrazatetracyclo[15.3.1.13,6.110,13]tricosane-2,8-dione] | 14.4 ± 1.9 µM | selective for the 14-3-3γ/SLP76 system | > 250 µM | 10 fold | orthogonally confirmed by SPR; also recorded: orthogonally confirmed in the SPR assay | 66.9% |  |  | 
c1cc(-c2nnc3scnn23)ccn1 [Compound 7, 3-pyridin-4-yl-[1,2,4]triazolo[3,4-b][1,3,4]thiadiazole] | 5.3 ± 1.9 µM |  | > 250 µM | fourfold | orthogonally confirmed by SPR; also recorded: strong concentration dependence in off-rate | 57.7% | no measurable modulation |  | 
O=C(Cn1nc(C(F)(F)F)c2c1CCCC2)Nc1ccc(Cl)c(Cl)c1 [Compound 14, N-(3,4-dichlorophenyl)-2-[3-(trifluoromethyl)-4,5,6,7-tetrahydroindazol-1-yl]acetamide] | 21.2 ± 11.3 µM |  | 12.6 ± 14.4 µM |  | not confirmed in the SPR assay | Ns ^d |  |  | 
B1 |  |  |  |  |  |  |  | 27.9 ± 1.5 nM | 43 nM
